# Source: paper PMC4003287, “Fast and economic immobilization methods described for non-commercial Pseudomonas lipases” (BMC Biotechnology, 2014)
# Tests used:
# LipA = target: T1, LipA (Pseudomonas sp. 42A2, UniProt B3GVV8); assay: transesterification to FAMEs, TLC, immobilized crude enzyme; assay type: biochemical; conditions: methanol 15% w/w, water 10% w/w, 30°C, 24 h; triolein of 65% purity (with di- and monolein); FAMEs seen with EP100 and Celite 545 preparations
# T1 construct: secreted lipase, co-expressed with foldase gene lipH of 42A2 in pBBR1MCS, host P. aeruginosa PABST7.1 (PAO1 lipA lipH deletion); crude culture supernatant, adsorbed on EP100, MP1000 or Celite 545
# T1 sequence (B3GVV8 27-311): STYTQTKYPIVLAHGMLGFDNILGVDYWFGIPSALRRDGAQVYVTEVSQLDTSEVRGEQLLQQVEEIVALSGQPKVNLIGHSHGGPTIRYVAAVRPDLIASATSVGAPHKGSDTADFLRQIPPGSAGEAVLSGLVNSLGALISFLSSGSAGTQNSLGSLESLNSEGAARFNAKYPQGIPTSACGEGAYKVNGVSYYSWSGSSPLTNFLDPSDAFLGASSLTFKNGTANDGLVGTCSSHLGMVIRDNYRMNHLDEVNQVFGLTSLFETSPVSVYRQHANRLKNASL
# LipC = target: T2, LipC (Pseudomonas sp. 42A2, UniProt B3GVV9); assay: as above; assay type: biochemical; conditions: methanol 15% w/w, water 10% w/w, room temperature, 24 h; triolein of 65% purity (with di- and monolein); FAMEs seen with EP100 and MP1000 preparations
# T2 construct: secreted lipase, co-expressed with foldase gene lipH of 42A2 in pBBR1MCS, host P. aeruginosa PABST7.1 (PAO1 lipA lipH deletion); crude culture supernatant, adsorbed on EP100, MP1000 or Celite 545
# T2 sequence (B3GVV9 24-309): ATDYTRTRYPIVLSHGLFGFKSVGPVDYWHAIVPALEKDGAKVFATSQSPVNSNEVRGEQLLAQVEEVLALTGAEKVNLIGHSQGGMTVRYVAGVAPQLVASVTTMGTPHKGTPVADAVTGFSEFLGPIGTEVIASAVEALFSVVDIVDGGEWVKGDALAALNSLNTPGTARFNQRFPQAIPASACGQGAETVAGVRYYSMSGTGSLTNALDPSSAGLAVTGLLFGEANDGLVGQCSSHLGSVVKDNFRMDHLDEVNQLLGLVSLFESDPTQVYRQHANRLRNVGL
structure (smiles),measurement,setting,value
CCCCCCCC/C=C\CCCCCCCC(=O)OCC(COC(=O)CCCCCCC/C=C\CCCCCCCC)OC(=O)CCCCCCC/C=C\CCCCCCCC [triolein],"transesterification to FAMEs, TLC, immobilized crude enzyme",LipA,"LipA, LipC and LipCmut produced a visible FAMEs spot when analyzed by TLC"
same,"transesterification to FAMEs, TLC, immobilized crude enzyme",LipC,"LipA, LipC and LipCmut produced a visible FAMEs spot when analyzed by TLC"
